In paper PMC4710668, “Bioactivation of food genotoxicants 5-hydroxymethylfurfural and furfuryl alcohol by sulfotransferases from human, mouse and rat: a comparative study” (Archives of Toxicology, 2014):

Columns and labels:
[1] = test system: rSult2a4; test: HMF sulfoconjugation assay; type: biochemical, rat
Method: (§1) Cytosolic fractions containing individual SULT forms were prepared from transgenic S. typhimurium TA1538. Table S1 in the Supplementary Material provides a summary of the thirty SULTs used in the current study together with references describing the cloning of the respective S. typhimurium TA1538 strains. The expressed SULT forms are denoted with the prefixes h, m and r for human, mouse and rat enzymes, respectively. Bacteria were grown in Luria Broth medium containing ampicillin (100 µg/ml) by stirring for 8 h at 200 revolutions/min at 37 °C. The bacterial suspensions were centrifuged at 5,000 g for 10 min. The sediments were washed twice with 25 ml of 10 mM potassium phosphate buffer (pH 7.4)/50 mM potassium chloride (KCP buffer) and centrifuged again. The pellets were taken up in 800 µl KCP buffer and sonicated thrice for 15 s with 30 s pauses in between. The soluble fraction was attained by centrifuging for 1 h at 100,000 g. The supernatants (in the following termed cytosolic preparations) were frozen at −80 °C. The protein concentrations were determined according to a bicinchoninic acid (BCA) assay protocol. The SULT concentrations in the cytosolic preparations were estimated after electrophoretic separation and immunodetection using inclusion bodies of different SULT forms as standards (Teubner et al. [2007]). The preparation of SULT inclusion bodies and the immunodetection of SULTs is described in the Supplementary Material, which also contains a representative immunoblot of different amounts of rSult1a1standard and a cytosolic preparation of S. typhimurium expressing rSult1a1 (Fig. S1).
(§2) The reactions were conducted in mixtures of 100 µl containing 25–200 µg protein, 50 mM potassium phosphate buffer (pH 7.4), 5 mM MgCl2, 50 µM PAPS and different concentrations of HMF at 37 °C. Preliminary experiments ensured that measurements were recorded under ‘linear’ conditions, i.e., doubling of protein concentration or incubation time was doubling the amount of sulfate ester formed. The reactions were stopped after 30 min by adding 300 µl ice-cold 2-propanol, mixed and centrifuged at 15,000 g for 10 min.
(§3) SMF concentrations of the clear supernatants were analyzed by UPLC-MS/MS. The protocol was adapted from the quantification of SMF in plasma samples of HMF-treated mice (Monien et al. [2009]). In short, the supernatants were analyzed using a UPLC system (Waters) connected to a Quattro Premier XE tandem quadrupole mass spectrometer (Waters) using the negative electrospray ionization mode. Samples of 4 µl were injected into a HSS T3 column (1.8 µm, 2.1 × 100 mm; Waters) and eluted with an isocratic flow of 0.35 ml/min 10 mM ammonium acetate/methanol (95:5). The fragmentation reactions of SMF yielding two principal ions, the sulfate ion radical (m/z = 204.9 → 96.0) and the protonated sulfonate ion (m/z = 204.9 → 81.0) were monitored. The tune parameters were as follows: temperature of the electrospray source 120 °C; desolvation temperature 475 °C; desolvation gas nitrogen (800 l/h); cone gas nitrogen (100 l/h); collision gas argon (indicated cell pressure ~5 × 10^−3 mbar). For the fragmentation of SMF, collision energies were 20 and 23 eV for the transitions m/z = 204.9 → 81.0 and m/z = 204.9 → 96.0, respectively. The dwell time was set to 100 ms, and capillary voltage was set to 0.35 kV. The cone and RF1 lens voltages were 32 and 0.2 V, respectively. SMF was quantified using an external calibration line that was linear in the concentration range of 1.0 nM (4 fmol/injection) to 2,500 (10 pmol/injection) SMF (r ^2 ≥ 0.99). Data acquisition and handling were performed with MassLynx 4.1 software (Waters). The limit of detection (LOD) for this technique of 2.5 nM SMF has been reported (Monien et al. [2009]). In the current study, this corresponds to 10 fmol SMF per injection or a reaction rate of 0.5 pmol SMF/mg/min.

[2] = test system: rSult2a3; test: HMF sulfoconjugation assay; type: biochemical, rat
Method: as §1, §2, §3

For `O=Cc1ccc(CO)o1` [HMF, 5-Hydroxymethylfurfural], the Rate of sulfoconjugation ([1]; 0.1 mM HMF) was under 0.5 pmol/mg/min, the Rate of sulfoconjugation ([1]; 1 mM HMF) was under 0.5 pmol/mg/min and the Rate of sulfoconjugation ([1]; 10 mM HMF) was under 0.5 pmol/mg/min. For the same compound, the Rate of sulfoconjugation ([1]; 100 mM HMF) was under 0.5 pmol/mg/min, the Rate of sulfoconjugation ([2]; 0.1 mM HMF) was 0.6 ± 0.0 pmol/mg/min and the Rate of sulfoconjugation ([2]; 1 mM HMF) was 6.2 ± 0.2 pmol/mg/min. It also gave a Rate of sulfoconjugation ([2]; 10 mM HMF) of 62.8 ± 4.6 pmol/mg/min and a Rate of sulfoconjugation ([2]; 100 mM HMF) of 76.5 ± 8.8 pmol/mg/min.
